From US8563564B2, “Composition for skin external application containing gallocatechin gallate for moisturizing effect on the skin” (priority 2005, dated 2013)

Legend:
PPAR-α [1] = assay: PPAR-α activation capability, One-Factor-At-A-Time reporter gene (Dual-Luciferase) assay in CV-1 cells; assay type: cell-based; details: ratio based on the negative control, mean of three tests
From the text: (§1) One of the known methods for determining PPAR activation by observing PPAR activation/inactivation is reporter gene assay (Kliewer et. al., Nature, 1992, 358: 771-774). The reporter gene assay includes cloning a base sequence containing a promoter of interest and reporter genes, and injecting the base sequence into eukaryotic cells to activate transcription and to control the expression of a protein. Herein, protein expression increases as the promoter is activated. The reporter gene used for the first time is CAT (chloramphenicol acetyltransferase) gene. Recently, luciferase gene has been used widely. In the present invention, a Dual-Luciferase Reporter Assay System Kit available from Promega Co. was used. The following test was carried out to determine PPAR-α activation capability. CV-1 cells (ATCC CCL 70), i.e. monkey kidney epithelial cell line, were subcultured in a DMEM medium containing 10% bovine fetal serum treated with charcoal/dextrin. A phenol red-free medium was used to avoid the effect of estrogen upon phenol red. As plasmids, used were plasmids having PPRE (PPARs responsive element) as a promoter, followed by firefly luciferase genes as a reporter, the PPRE being activated by PPAR- (gene-containing PPAR- and ligand-bound PPAR-) bound next to the universal promoter expressed under general culture conditions, and a reference plasmid to which renilla luciferase genes were bound. CV-1 cells were plated on a 24-well microtiter plate at a concentration of 5×10^4 cells per well and cultured for 24 hours. Then, the above three types of plasmid genes were subjected to transient transfection by using a TransFast Kit available from Promega Co. After the cultured product was washed with PBS (phosphate buffered saline) once, the product was treated with a suitable concentration of sample materials, cultured again for 24 hours, and washed with PBS twice. Next, the cells were lysed with PLB (passive lysis buffer, Promega) once, and determined for luciferase activity by using a Dual-Luciferase Reporter Assay System Kit (Promega) in the samples and the controls. In this test, as a positive control, Wy14643 known as the strongest PPAR-α ligand was used. As negative controls, DMSO used to dissolve the samples and non-treated group were used. Each reported value was calculated as a ratio based on the negative control. The results are shown in the following Table 1, wherein each value is the mean value obtained after carrying out the test three times.

PPAR-α [2] = assay: PPAR-α activation capability of GCG/theobromine/quercetin combinations, response surface methodology (central composite design); assay type: cell-based
From the text: as §1, with “CV-1” for “One of the known methods for determining PPAR activation by observing PPAR activation/inactivation is reporter gene assay (Kliewer et. al., Nature, 1992, 358: 771-774). The reporter gene assay includes cloning a base sequence containing a promoter of interest and reporter genes, and injecting the base sequence into eukaryotic cells to activate transcription and to control the expression of a protein. Herein, protein expression increases as the promoter is activated. The reporter gene used for the first time is CAT (chloramphenicol acetyltransferase) gene. Recently, luciferase gene has been used widely. In the present invention, a Dual-Luciferase Reporter Assay System Kit available from Promega Co. was used. The following test was carried out to determine PPAR-α activation capability. CV-1”, “times. […] When using RSM, it is possible to understand the level of an independent parameter where a response value is optimized, to estimate the effect of an independent parameter upon response parameters via estimation of a functional relationship between each independent parameter and dependent parameter, and to determine optimized experimental conditions. […]” for “times.”

Compound: Oc1cc(O)c2c(c1)O[C@H](c1ccc(O)c(O)c1)[C@@H](O)C2 [(+) CA]
- PPAR-α Activation (PPAR-α [1]; 10 uM): 1.5
- PPAR-α Activation (PPAR-α [1]; 100 uM): 1.4

Compound: Oc1cc(O)c2c(c1)O[C@@H](c1ccc(O)c(O)c1)[C@@H](O)C2 [(+) EC]
- PPAR-α Activation (PPAR-α [1]; 10 uM): 1.3
- PPAR-α Activation (PPAR-α [1]; 100 uM): 1.2

Compound: O=C(O[C@@H]1Cc2c(O)cc(O)cc2O[C@H]1c1ccc(O)c(O)c1)c1cc(O)c(O)c(O)c1 [(−) CG]
- PPAR-α Activation (PPAR-α [1]; 10 uM): 1.2
- PPAR-α Activation (PPAR-α [1]; 100 uM): 1.6

Compound: O=C(O[C@@H]1Cc2c(O)cc(O)cc2O[C@@H]1c1ccc(O)c(O)c1)c1cc(O)c(O)c(O)c1 [(−) ECG]
- PPAR-α Activation (PPAR-α [1]; 10 uM): 1.1
- PPAR-α Activation (PPAR-α [1]; 100 uM): 1.6

Compound: Oc1cc(O)c2c(c1)O[C@H](c1ccc(O)c(O)c1)[C@H](O)C2 [(−) EC]
- PPAR-α Activation (PPAR-α [1]; 10 uM): 1.2
- PPAR-α Activation (PPAR-α [1]; 100 uM): 1.2

Compound: Oc1cc(O)c2c(c1)O[C@H](c1cc(O)c(O)c(O)c1)[C@H](O)C2 [(−) EGC]
- PPAR-α Activation (PPAR-α [1]; 10 uM): 1.3
- PPAR-α Activation (PPAR-α [1]; 100 uM): 1.0

Compound: O=C(O[C@@H]1Cc2c(O)cc(O)cc2O[C@H]1c1cc(O)c(O)c(O)c1)c1cc(O)c(O)c(O)c1 [(−) GCG, gallocatechin gallate]
- fold (PPAR-α activation) (PPAR-α [2]; GCG 100, theobromine 0, quercetin 0): 1.191 fold
- PPAR-α Activation (PPAR-α [1]; 10 uM): 1.1
- PPAR-α Activation (PPAR-α [1]; 100 uM): 2.3

Compound: Oc1cc(O)c2c(c1)O[C@@H](c1cc(O)c(O)c(O)c1)[C@H](O)C2 [(−) GC]
- PPAR-α Activation (PPAR-α [1]; 10 uM): 1.1
- PPAR-α Activation (PPAR-α [1]; 100 uM): 1.0

Compound: Cn1c(=O)c2c(ncn2C)n(C)c1=O [Caffeine]
- PPAR-α Activation (PPAR-α [1]; 10 uM): 1.3
- PPAR-α Activation (PPAR-α [1]; 100 uM): 1.6

Compound: O=C(O)c1cc(O)c(O)c(O)c1 [Gallic acid]
- PPAR-α Activation (PPAR-α [1]; 10 uM): 1.3
- PPAR-α Activation (PPAR-α [1]; 100 uM): 1.7

Compound: O=c1c(O)c(-c2ccc(O)cc2)oc2cc(O)cc(O)c12 [Kaempferol]
- PPAR-α Activation (PPAR-α [1]; 10 uM): 1.7
- PPAR-α Activation (PPAR-α [1]; 100 uM): 1.4

Compound: O=c1c(O)c(-c2cc(O)c(O)c(O)c2)oc2cc(O)cc(O)c12 [Myricetin]
- PPAR-α Activation (PPAR-α [1]; 10 uM): 1.7
- PPAR-α Activation (PPAR-α [1]; 100 uM): 1.6

Compound: Cc1cccc(Nc2cc(Cl)nc(SCC(=O)O)n2)c1C [Positive Control, Wy14643]
- PPAR-α Activation (PPAR-α [1]; 0.1 uM): 1.5
- PPAR-α Activation (PPAR-α [1]; 1 uM): 2.6
- PPAR-α Activation (PPAR-α [1]; 10 uM): 3.8

Compound: O=c1c(O)c(-c2ccc(O)c(O)c2)oc2cc(O)cc(O)c12 [Quercetin]
- fold (PPAR-α activation) (PPAR-α [2]; GCG 0, theobromine 0, quercetin 100): 1.3 fold
- PPAR-α Activation (PPAR-α [1]; 10 uM): 1.7
- PPAR-α Activation (PPAR-α [1]; 100 uM): 2.3

Compound: O=C(O)[C@]1(O)C[C@@H](O)[C@@H](O)[C@H](O)C1 [Quinic acid]
- PPAR-α Activation (PPAR-α [1]; 10 uM): 1.3
- PPAR-α Activation (PPAR-α [1]; 100 uM): 1.7

Compound: C[C@@H]1O[C@@H](OC[C@H]2O[C@@H](Oc3c(-c4ccc(O)c(O)c4)oc4cc(O)cc(O)c4c3=O)[C@H](O)[C@@H](O)[C@@H]2O)[C@H](O)[C@H](O)[C@H]1O [Rutin hydrate]
- PPAR-α Activation (PPAR-α [1]; 10 uM): 1.6
- PPAR-α Activation (PPAR-α [1]; 100 uM): 1.3

Compound: CCNC(=O)CC[C@H](N)C(=O)O [Theanine]
- PPAR-α Activation (PPAR-α [1]; 10 uM): 1.8
- PPAR-α Activation (PPAR-α [1]; 100 uM): 1.9

Compound: Cn1cnc2c1c(=O)[nH]c(=O)n2C [Theobromine]
- fold (PPAR-α activation) (PPAR-α [2]; GCG 0, theobromine 100, quercetin 0): 1.905 fold
- PPAR-α Activation (PPAR-α [1]; 10 uM): 2.2
- PPAR-α Activation (PPAR-α [1]; 100 uM): 4.5

Compound: Cn1c(=O)c2[nH]cnc2n(C)c1=O [Theophylline]
- PPAR-α Activation (PPAR-α [1]; 10 uM): 1.4
- PPAR-α Activation (PPAR-α [1]; 100 uM): 1.7

Compound: Epigallocatechin gallate [(−) EGCG]
- PPAR-α Activation (PPAR-α [1]; 10 uM): 1.0
- PPAR-α Activation (PPAR-α [1]; 100 uM): 1.5
